# In patent publication US12122800B2, “Inhibitors of MEK kinase” (Kinnate Biopharma Inc., priority 2022, dated 2024):
# Test system: A375 pERK
# Experiment: Cellular assay monitoring phosphorylation of ERK (HTRF phospho-ERK Thr202/Tyr204) in A-375 cells
# Type: cell-based
# Settings: Homo sapiens, melanoma derived cell line A-375 (BRAF V600 activating mutation), 1 hour incubation with compound
# Method: To determine the effect of the MEK inhibitor compounds disclosed herein on cellular MAPK signaling downstream of MEK, an assay monitoring phosphorylation of ERK was used. Melanoma derived cell line A-375, which harbors a BRAF V600 activating mutation was cultured and maintained as specified by the supplier (ATCC: Cat #CRL-1619; American Type Culture Collection; Manassas, VA 20110). Cells were seeded at 8000 cells/well in 24 μL growth media in a 384-well plate and allowed to adhere at 37° C. with 5% CO2 overnight. The following day, compounds were serially diluted into 10-point, 3-fold dilution curves in 384 well plates. Compound was transferred to cell plates using Echo550 such that the final concentration range was 0.508 nM to […] in […] with 0.1% DMSO being used as negative control. Cells were incubated with compounds for 1 hour at 37° C. with […]. Cells were lysed by addition of 8 μL 4× lysis buffer provided with HTRF kit (Advanced phospho-ERK (Thr202/Tyr204) cellular kit; Cisbio; Cat #64AERPEH) plus 1× protease/phosphatase inhibitor cocktail. 20 μL lysate was transferred to HTRF plate followed by 2.5 μL each of anti-ERK1/2-Europium/Terbium Cryptate and anti-phospho-ERK1/2 antibody solutions per manufacturer's instructions and incubated. Specific signal was measured at […] on a Perkin Elmer Envision 2105 and the ratios used to calculate IC50 values within the Dotmatics Knowledge Solutions Studies curve fitting environment (Dotmatics, Bishops Stortford, UK, CM23) and are presented in Table 8.
row,Compound,IC50 [µM]
1,"CC[P@@](C)(=O)c1ccncc1Nc1ccc(I)cc1F (single isomer, unassigned) [Example 8]",0.01 to 0.1
2,"C#Cc1ccc(Nc2cnccc2[P@](C)(=O)CC)c(F)c1 (single isomer, unassigned) [Example 19]",0.1 to 1
3,"C#Cc1ccc(Nc2cnccc2[P@@](C)(=O)CC)c(F)c1 (single isomer, unassigned) [Example 20]",0.1 to 1
4,"CP(C)(=O)c1ccncc1Nc1ccc(I)cc1F [Example 1, 4-(Dimethylphosphoryl)-N-(2-fluoro-4-iodophenyl)pyridin-3-amine]",> 0.01
5,"CP(C)(=O)c1ccc(F)cc1Nc1ccc(I)cc1F [Example 2, 2-(Dimethylphosphoryl)-5-fluoro-N-(2-fluoro-4-iodophenyl)aniline]",≤ 1
6,"CP(C)(=O)c1ccncc1Nc1ccc(I)c(F)c1F [Example 3, N-(2,3-Difluoro-4-iodophenyl)-4-(dimethylphosphoryl)pyridin-3-amine]",0.01 to 0.1
7,"CP(C)(=O)c1ccc(F)c(F)c1Nc1ccc(I)cc1F [Example 4, 6-(Dimethylphosphoryl)-2,3-difluoro-N-(2-fluoro-4-iodophenyl)aniline]",≤ 1
8,"O=P1(c2ccncc2Nc2ccc(I)cc2F)CCCC1 [Example 5, 1-(3-((2-Fluoro-4-iodophenyl)amino)pyridin-4-yl)phospholane 1-oxide]",0.01 to 0.1
9,"CCP(=O)(CC)c1ccncc1Nc1ccc(I)cc1F [Example 6, 4-(Diethylphosphoryl)-N-(2-fluoro-4-iodophenyl)pyridin-3-amine]",0.01 to 0.1
10,"CCP(C)(=O)c1ccncc1Nc1ccc(I)cc1F (centres unmarked) [Example 7, 4-[Ethyl(methyl)phosphoryl]-N-(2-fluoro-4-iodophenyl)pyridin-3-amine]",0.01 to 0.1
11,"CP(C)(=O)c1ccncc1Nc1ccc(Br)cc1F [Example 10, N-(4-Bromo-2-fluorophenyl)-4-(dimethylphosphoryl)pyridin-3-amine]",0.1 to 1
12,"O=P1(c2ccncc2Nc2ccc(Br)cc2F)CCCC1 [Example 12, 1-(3-((4-Bromo-2-fluorophenyl)amino)pyridin-4-yl)phospholane 1-oxide]",0.1 to 1
13,"C#Cc1ccc(Nc2cnccc2P(=O)(CC)CC)c(F)c1 [Example 18, 4-(Diethylphosphoryl)-N-(4-ethynyl-2-fluorophenyl)pyridin-3-amine]",0.1 to 1
14,"CP(C)(=O)c1ccncc1Nc1ccc(I)cc1 [Example 22, 4-(Dimethylphosphoryl)-N-(4-iodophenyl)pyridin-3-amine]",0.01 to 0.1
15,"CP(C)(=O)c1c(F)cncc1Nc1ccc(I)cc1F [Example 24, 4-(Dimethylphosphoryl)-5-fluoro-N-(2-fluoro-4-iodophenyl)pyridin-3-amine]",> 0.01
16,"CP(C)(=O)c1ccnc(F)c1Nc1ccc(I)cc1F [Example 25, (2-Fluoro-3-((2-fluoro-4-iodophenyl)amino)pyridin-4-yl)dimethylphosphine oxide]",0.01 to 0.1
17,"CP(C)(=O)c1c(F)cncc1Nc1ccc(Br)cc1Cl [Example 26, N-(4-bromo-2-chlorophenyl)-4-(dimethylphosphoryl)-5-fluoropyridin-3-amine]",> 0.01
18,"CP(C)(=O)c1c(Cl)cncc1Nc1ccc(Br)cc1Cl [Example 28, N-(4-Bromo-2-chlorophenyl)-5-chloro-4-(dimethylphosphoryl)pyridin-3-amine]",0.1 to 1
19,"CP(C)(=O)c1c(Cl)cncc1Nc1ccc(Br)cc1F [Example 29, (3-((4-Bromo-2-fluorophenyl)amino)-5-chloropyridin-4-yl)dimethylphosphine oxide]",0.01 to 0.1
20,"CP(C)(=O)c1c(Cl)cncc1Nc1ccc(C2CC2)cc1F [Example 32, (3-Chloro-5-((4-cyclopropyl-2-fluorophenyl)amino)pyridin-4-yl)dimethylphosphine oxide]",0.01 to 0.1

# The next lines start with the values.
row,IC50 [µM],Compound
1,0.01 to 0.1,"CC[P@](C)(=O)c1ccncc1Nc1ccc(I)cc1F (single isomer, unassigned) [Example 9]"
2,0.1 to 1,"CC[P@@](C)(=O)c1ccncc1Nc1ccc(Br)cc1F (single isomer, unassigned) [Example 16]"
3,0.1 to 1,"CC[P@](C)(=O)c1ccncc1Nc1ccc(Br)cc1F (single isomer, unassigned) [Example 17]"
4,0.1 to 1,"CCP(=O)(CC)c1ccncc1Nc1ccc(Br)cc1F [Example 11, N-(4-bromo-2-fluorophenyl)-4-(diethylphosphoryl)pyridin-3-amine]"
5,> 0.01,"CP(C)(=O)c1c(Cl)cncc1Nc1ccc(I)cc1F [Example 13, 5-Chloro-4-(dimethylphosphoryl)-N-(2-fluoro-4-iodophenyl)pyridin-3-amine]"
6,0.01 to 0.1,"C#Cc1ccc(Nc2cnccc2P(C)(C)=O)c(F)c1 [Example 14, (3-((4-Ethynyl-2-fluorophenyl)amino)pyridin-4-yl)dimethylphosphine oxide]"
7,0.1 to 1,"C#Cc1ccc(Nc2cnccc2P2(=O)CCCC2)c(F)c1 [Example 15, 1-(3-((4-Ethynyl-2-fluorophenyl)amino)pyridin-4-yl)phospholane 1-oxide]"
8,0.1 to 1,"CP(C)(=O)c1cc(F)ncc1Nc1ccc(I)cc1F [Example 21, (2-Fluoro-5-((2-fluoro-4-iodophenyl)amino)pyridin-4-yl)dimethylphosphine oxide]"
9,0.01 to 0.1,"CP(C)(=O)c1ccncc1Nc1ccc(C2CC2)cc1F [Example 23, N-(4-Cyclopropyl-2-fluorophenyl)-4-(dimethylphosphoryl)pyridin-3-amine]"
10,0.1 to 1,"CP(C)(=O)c1ccncc1Nc1ccc(Br)cc1Cl [Example 27, N-(4-bromo-2-chlorophenyl)-4-(dimethylphosphoryl) pyridin-3-amine]"
11,> 0.01,"Cc1cncc(Nc2ccc(I)cc2F)c1P(C)(C)=O [Example 30, 4-(Dimethylphosphoryl)-N-(2-fluoro-4-iodophenyl)-5-methylpyridin-3-amine]"
12,0.01 to 0.1,"C#Cc1ccc(Nc2cncc(F)c2P(C)(C)=O)c(F)c1 [Example 31, 4-(Dimethylphosphoryl)-N-(4-ethynyl-2-fluorophenyl)-5-fluoropyridin-3-amine]"
